Data as given in patent publication US20190328832A1, “ANTIMICROBIAL COMBINATIONS” (HELPERBY THERAPEUTICS LIMITED, priority 2016, published 2019).

Test system: log phase NDM-1 Klebsiella Pneumoniae (BAA2473 strain)
Assay: Time-kill method over 24 hours against log phase NDM-1 Klebsiella pneumoniae (CFU counts)
Assay type: cell-based
Settings: perphenazine alone at 128 mg/L, FIG. 1
Protocol: The objective of this example was to test the synergistic effect of perphenazine and colistin (in the form of colistimethate sodium) in combination against log phase NDM-1 Klebsiella Pneumoniae by time-kill methods over a time period of 24 hours. As described hereinabove, time-kill methods are another accepted test for ascertaining the presence or absence of synergy, and involve comparing the dynamic effect of a drug combination with each drug alone when assessing the effect on bacterial log or stationary-growth over time.
Materials and Methods • 1. Bacterial strain used: BAA2473 strain of Klebsiella pneumoniae • 2. Growth of bacteria: Log phase growth of BAA2473 was carried out according to known methods in the art, e.g. SOP R-005-00 Log Phase Growth of Bacteria. • 3. Compound preparation: • i. Perphenazine was ordered from Sigma Aldrich® UK. • ii. Colistin was obtained as Colistimethate sodium (Forest Laboratories UK 1 million I. U. 80 mg). • 4. The overnight culture was diluted with nutrient broth (Oxoid) to […] and 280 μl and 290 ul of the culture was added to each combination well and drug respectively, to make the final concentration of 300 μl. • 5. Incubation of the compounds with the bacterial suspension was carried out for 24 hours. At 0, 2, 4, 7 and 24 hours, CFU counts were performed to measure the kill effects of the drug combination.

In the case of `OCCN1CCN(CCCN2c3ccccc3Sc3ccc(Cl)cc32)CC1` [perphenazine, 2-[4-[3-(2-chloro-10H-phenothiazin-10-yl)propyl]piperazin-1-yl]ethanol], the “effect against NDM-1 K. pneumoniae (time-kill, Log CFU/ml)” value is reported as “little or no effect”.
